The values below come from patent publication US20240115557A1, “INHIBITORS OF RNA-GUIDED NUCLEASES AND USES THEREOF” (The Brigham and Women's Hospital, Inc., priority 2022, published 2024).

One assay deals with LbCas12a. The assay can be described thus: eGFP disruption assay, LbCas12a RNP. Type of assay: cell-based. The note with it: RNP delivery, U2OS.eGFP.PEST, 24 h.
The next assay addresses SpCas9:gRNA complex (Streptococcus pyogenes serotype M1, UniProt Q99ZW2). The assay can be described thus: STD NMR binding assay. As to conditions: 20 μM compound, 5 μM SpCas9:gRNA. The method, then: All samples were prepared with 20 μM of BRD7586 in a 20 mM […] buffer (pH 7.4) in D2O with or without 5 μM of SpCas9:gRNA in a 3 mm NMR tube. Experiments were performed on a 600 MHz (^19F: 564.71 MHz) Bruker AVANCE III NMR spectrometer equipped with a 5 mm QCI-F CryoProbe and a SampleJet for automated sample handling. To acquire the spectra, a standard one-pulse STD experiment with WALTZ-16 for proton decoupling during acquisition, a 5 s recycle delay, and 256 scans were used. All spectra were recorded at 280 K. NMR data were apodized with a 1-Hz exponential function prior to Fourier transformation. All spectra were baseline corrected, and peak widths and intensities were extracted using the automated line-fitting feature provided with the MNova software package.

In a further assay the test system is U2OS.eGFP.PEST cells. The assay can be described thus: eGFP fluorescence counter assay in absence of SpCas9:gRNA. It counts as cell-based, human. On the procedure: FIG. 73A-73E Counter assays to validate BRD7586 in cells FIG. 73A,B Immunoblotting analysis of SpCas9 expression in (A) HEK293T cells or (B) U20S.eGFP.PEST cells transfected with SpCas9 plasmid were incubated with BRD7586 for 24 h (n=2 or 3 independent experiments). p>0.05 for BRD7586 at […] compared to DMSO in U20S.eGFP.PEST cells (paired t test, two-tailed) FIG. 73C Changes in the fluorescence intensity in the presence of BRD7586 in U20S.eGFP.PEST. Cells were treated with the compound for 24 h, and the fluorescence was measured to calculate the fraction of GFP-positive populations. Means from 3 independent experiments are shown. […] Error bars represent SD from 3 independent experiments. For SpCas9, p≤0.01 for BRD7586 at 15 μM compared to DMSO. For LbCas12a, p>0.05 for BRD7586 at 15 μM compared to DMSO in all experiments (unpaired t test, two-tailed).

For assay [1], the target named is T1, SpCas9 (Streptococcus pyogenes serotype M1, UniProt Q99ZW2). Put plainly: Targeted deep sequencing of indels (eGFP, EMX1, FANCF, VEGFA). Type of assay: cell-based. On the procedure: U2OS.eGFP.PEST cells were nucleofected as described above for the eGFP disruption assay, plated in a 24-well plate at the density of 150,000 cells per well, and incubated with BRD7586 for 24 h. Then, the genomic DNA was extracted using DNeasy Blood & Tissue Kit (Qiagen). HEK293T cells were plated in a 24-well plate at the density of 100,000 cells per well. The next day, cells were transfected with 500 ng of SpCas9 plasmid and 250 ng of EMX1-, VEGFA-, or FANCF-targeting gRNA plasmid using Lipofectamine 3000 (Invitrogen). Indicated amount of compound was added at the time of transfection, cells were incubated for 24 h or 48 h, and genomic DNA was extracted. Next-generation sequencing (NGS) samples were prepared using a two-step PCR protocol. NGS libraries were quantified using KAPA Library Quantification Kit (Roche) and diluted to 4 nM. Sequencing of the pooled library was performed using MiSeq Reagent Kit v2 (Illumina). The percentage of indel in the demultiplexed sequence files was analyzed using the CRISPResso2 software from the Pinello Lab.^49

The target in assay [2] is T1, SpCas9. Put plainly: In vitro DNA cleavage assay, SpCas9. Type of assay: biochemical. As to conditions: 0-40 μM. On the procedure: First, Cas9:gRNA complex (30 nM Cas9 (NEB) and 36 nM eGFP targeting gRNA) was formed by mixing each component at a 1:1.2 (Cas9:gRNA) molar ratio and incubating at room temperature for 10 minutes. BRD7586 at doses 0, 5, 10, 20, 30, 40 μM were incubated with Cas9:gRNA complex at 37° C. for 30 minutes at 700 rpm. PCR amplified target eGFP DNA (2 nM) was added after 30 minutes of compound incubation and the mixture was incubated at 37° C. for 30 minutes at 700 rpm. Proteinase K (5 μL) was added and incubated at 37° C. for 30 minutes at 700 rpm to digest the Cas9. The resulting mixtures were purified PCR mini elute kit (Qiagen) and the eluted DNA was quantified by Qubit HS DNA quantification method. Equal amounts of DNA samples were run on a 1% agarose E-gels (invitrogen) for 7 minutes. Images were obtained by an Azure 600 (Azure Biosystem) and quantification of band intensities were performed by ImageJ based analysis.

T1 sequence (Q99ZW2 whole entry): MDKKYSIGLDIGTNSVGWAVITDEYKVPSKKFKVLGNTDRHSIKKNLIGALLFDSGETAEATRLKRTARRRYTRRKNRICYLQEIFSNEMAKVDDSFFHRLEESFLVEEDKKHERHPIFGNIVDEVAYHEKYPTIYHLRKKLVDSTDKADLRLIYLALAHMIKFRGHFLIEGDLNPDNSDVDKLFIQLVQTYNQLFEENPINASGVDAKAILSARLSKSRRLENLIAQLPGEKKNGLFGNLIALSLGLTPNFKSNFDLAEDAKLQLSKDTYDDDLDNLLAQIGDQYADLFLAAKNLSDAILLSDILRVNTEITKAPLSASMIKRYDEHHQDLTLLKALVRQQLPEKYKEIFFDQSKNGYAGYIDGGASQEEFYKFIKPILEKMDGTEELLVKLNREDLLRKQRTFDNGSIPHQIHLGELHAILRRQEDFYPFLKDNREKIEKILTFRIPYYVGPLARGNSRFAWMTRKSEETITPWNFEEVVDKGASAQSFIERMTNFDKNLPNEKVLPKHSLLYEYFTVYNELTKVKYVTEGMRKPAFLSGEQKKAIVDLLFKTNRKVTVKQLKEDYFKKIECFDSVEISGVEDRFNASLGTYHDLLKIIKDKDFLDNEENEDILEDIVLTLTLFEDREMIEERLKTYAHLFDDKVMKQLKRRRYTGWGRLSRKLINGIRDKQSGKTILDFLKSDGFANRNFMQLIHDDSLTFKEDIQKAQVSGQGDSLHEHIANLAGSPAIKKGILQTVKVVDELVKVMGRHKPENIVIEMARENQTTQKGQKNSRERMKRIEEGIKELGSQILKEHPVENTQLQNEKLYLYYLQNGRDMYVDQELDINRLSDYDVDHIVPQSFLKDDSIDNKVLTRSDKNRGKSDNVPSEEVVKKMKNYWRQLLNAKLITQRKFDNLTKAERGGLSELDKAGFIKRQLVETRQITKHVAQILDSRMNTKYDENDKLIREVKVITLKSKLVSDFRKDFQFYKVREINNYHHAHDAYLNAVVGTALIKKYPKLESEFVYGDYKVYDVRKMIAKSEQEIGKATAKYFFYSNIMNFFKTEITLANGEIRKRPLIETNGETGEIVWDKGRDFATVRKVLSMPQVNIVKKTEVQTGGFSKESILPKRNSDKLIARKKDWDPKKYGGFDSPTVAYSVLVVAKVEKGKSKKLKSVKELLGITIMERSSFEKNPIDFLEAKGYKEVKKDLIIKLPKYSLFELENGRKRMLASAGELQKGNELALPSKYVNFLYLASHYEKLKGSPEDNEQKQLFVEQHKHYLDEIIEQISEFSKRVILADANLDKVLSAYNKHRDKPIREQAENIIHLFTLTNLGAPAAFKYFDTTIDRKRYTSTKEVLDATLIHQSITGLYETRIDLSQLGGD
Sequence of SpCas9:gRNA complex (Q99ZW2 whole entry, one chain of several): as the sequence (Q99ZW2 whole entry) above

Regarding `O=C(CCS(=O)(=O)c1ccc(Cl)cc1)Nc1nc(-c2ccncc2)cs1` [BRD7586], in the assay on LbCas12a, the “Effect on activity of LbCas12a” value was “did not affect the activity”. On SpCas9:gRNA complex, the “STD NMR signal” value is recorded as “observed the STD NMR signal from marked protons”. Also, the “Effect on eGFP expression in the absence of SpCas9:gRNA” value with U2OS.eGFP.PEST cells is given as “without affecting the eGFP expression”. Moreover, the “Specificity of SpCas9 (on-target versus off-target ratio)” value at SpCas9 [1] (HEK293T, EMX1, FANCF or VEGFA, 48 h) is given as “enhanced the specificity of SpCas9”. In addition, the “Inhibition of indel activity by next-generation sequencing” value at SpCas9 [1] (multiple genomic loci) is on record as “inhibited the indel activity of SpCas9 at multiple genomic loci”. The “Inhibition of SpCas9 in in vitro DNA cleavage assay” value at SpCas9 [2] is given as “dose-dependent inhibition”.
